Key:
Assay in all cases: Phenotype microarray metabolic activity
Type in all cases: cell-based
Actinomyces naeslundii = details: for metabolic activity: OD 492 nm divided by OD of control (control = 1): A naeslundii
Experimental: (§1) The extent of metabolic activity of the tested bacteria in the presence of the above-mentioned saccharides after 24 hours and 48 hours was investigated through a high throughput phenotype microarray system (PM) for microbial cells (Biolog Inc.). Each PM can contain up to 95 different biochemical compounds (e.g. saccharides) that may act as substrates for bacteria as well as one negative control, not containing the substrates. Microarray plates were used in which the different wells of each plate were pre-loaded (by the manufacturer, Biolog Inc.) with different saccharides to be tested. Each bacterial species was tested using a separate microarray plate. Thus, a single bacterial species was tested with a variety of saccharides on each particular plate. The microarrays are based on redox technology, using cell respiration as a universal reporter. Active cell respiration results in the reduction of a tetrazolium dye and in the formation of a strong color—for example, when using the tetrazolium dye “Biolog Redox Dye Mix D”, the color changes from transparent/colorless to purple when the dye is reduced. The observation of this color change indicates which of the substrates improve the metabolic activity and health of the cells.
(§2) Each bacterial species was collected from blood agar plates (incubated for 48 hours anaerobically at 37° C.) and transferred to an IF-0 Base inoculation fluid (Biolog Inc.), which is a nutritionally poor medium. The resulting cell suspension was adjusted to a transmittance of 42% (relative to the transmittance of the base inoculation fluid with no bacterial species present) at 492 nm using a BioRad SmartSpec 3000 Photometer (the adjustment being effected by adding either further inoculation fluid or further bacteria until the transmittance of 42% was achieved). A 1:5 dilution of this suspension was prepared by mixing 3 mL of the 42% transmittance cell suspension with 15 mL of an inoculation fluid (which inoculation fluid was formed by mixing 11.6 mL sterile water, 62.5 mL IF-0 base inoculation fluid and 0.9 mL of the tetrazolium dye “Biolog Redox Dye mix D”), resulting in a final cell density which was equal to 85% transmittance using a BioRad SmartSpec 3000 Photometer. For each of the saccharides tested, the microarray plate (obtained from the supplier (Biolog Inc.) with saccharides already present in the relevant wells in powder form) was directly inoculated with 100 μL/well of this 85% transmittance cell suspension.
(§3) All plates were incubated in an anaerobic atmosphere at 37° C. Color changes were measured spectrophotometrically at 492 nm (Thermo Scientific Multiskan Ascent) at 24 hrs and 48 hrs using the same plate at both time points. […] After 24 hrs and 48 hrs under continuous shaking in a Multiscan microplate reader, the optical density (OD) of the synthetic medium at 24 hours and 48 hours was measured (using the microplate reader) at a wavelength of 492 nm for each combination of bacterium/saccharide, and for each of their respective controls (i.e. which contained the particular bacterium but no saccharide).
(§4) The experiment was carried out three times for each combination of bacterium with saccharide, with each repeat being carried out on a different day (thus providing three biological replicas). The controls were also carried out three times, as above. The values shown are the average (mean) of the three single values obtained (as detailed above) for each combination of bacterium with saccharide, at 24 hrs and at 48 hrs.

Actinomyces viscosus = details: for metabolic activity: OD 492 nm divided by OD of control (control = 1): A viscosus
Experimental: as §1, §2, §3, §4

[1] = test system: Aggregatibacter actinomycetemcomitans; details: A actinomycetemcomitans
Experimental: as §1, §2, §3, §4

Capnocytophaga sputigena = details: C sputigena
Experimental: as §1, §2, §3, §4

Fusobacterium nucleatum = details: F nucleatum
Experimental: as §1, §2, §3, §4

Porphyromonas gingivalis = details: P gingivalis
Experimental: as §1, §2, §3, §4

Prevotella intermedia = details: P intermedia
Experimental: as §1, §2, §3, §4

S sanguinis = test system: S sanguinis
Experimental: as §1, §2, §3, §4

Streptococcus gordonii = details: S gordonii
Experimental: as §1, §2, §3, §4

Streptococcus mitis = details: S mitis
Experimental: as §1, §2, §3, §4

Streptococcus mutans = details: for metabolic activity: OD 492 nm divided by OD of control (control = 1): S mutans
Experimental: as §1, §2, §3, §4

Streptococcus salivarius = details: for metabolic activity: OD 492 nm divided by OD of control (control = 1): S salivarius
Experimental: as §1, §2, §3, §4

Streptococcus sobrinus = details: S sobrinus
Experimental: as §1, §2, §3, §4

Tannerella forsythia = details: T forsythia
Experimental: as §1, §2, §3, §4

Veillonella parvula = details: V parvula
Experimental: as §1, §2, §3, §4

**Q.** How did the “increase in metabolic activity of A. naeslundii, in words” value (Actinomyces naeslundii; 24 hrs) turn out when OC[C@@H](O)[C@@H](O[C@H]1O[C@H](CO)[C@H](O)[C@H](O)[C@H]1O)[C@H](O)[C@@H](O)CO [D-Lactitol, 4-O-α-D-galactopyranosyl-D-glucitol] was run?
**A.** marked increase

**Q.** And the “metabolic activity: OD 492 nm divided by OD of control (control = 1)” value (“metabolic activity: OD 492 nm divided” for short) (Actinomyces naeslundii; 24 hrs)?
**A.** 2.4399

**Q.** And the “metabolic activity: OD 492 nm divided” value (Actinomyces naeslundii; 48 hrs)?
**A.** 3.3992

**Q.** What about the “increase in metabolic activity of A. viscosus, in words” value (Actinomyces viscosus; 24 hrs) of the same compound?
**A.** marked increase

**Q.** And the “metabolic activity: OD 492 nm divided” value (Actinomyces viscosus; 24 hrs)?
**A.** 4.2553

**Q.** And the “metabolic activity: OD 492 nm divided” value (Actinomyces viscosus; 48 hrs)?
**A.** 4.9364

**Q.** And the “metabolic activity: OD 492 nm divided” value ([1]; 24 hrs)?
**A.** 0.8916

**Q.** What about the “metabolic activity: OD 492 nm divided” value ([1]; 48 hrs) of the same compound?
**A.** 0.8237

**Q.** And the “metabolic activity: OD 492 nm divided” value (Capnocytophaga sputigena; 24 hrs)?
**A.** 0.9032

**Q.** What about the “metabolic activity: OD 492 nm divided” value (Capnocytophaga sputigena; 48 hrs) of the same compound?
**A.** 1.0097

**Q.** And the “metabolic activity: OD 492 nm divided” value (Fusobacterium nucleatum; 24 hrs)?
**A.** 0.9115

**Q.** And the “metabolic activity: OD 492 nm divided” value (Fusobacterium nucleatum; 48 hrs)?
**A.** 0.7913

**Q.** And the “metabolic activity: OD 492 nm divided” value (Porphyromonas gingivalis; 24 hrs)?
**A.** 0.8216

**Q.** What about the “metabolic activity: OD 492 nm divided” value (Porphyromonas gingivalis; 48 hrs) of the same compound?
**A.** 1.0092

**Q.** What about the “metabolic activity: OD 492 nm divided” value (Prevotella intermedia; 24 hrs) of the same compound?
**A.** 0.9834

**Q.** What about the “metabolic activity: OD 492 nm divided” value (Prevotella intermedia; 48 hrs) of the same compound?
**A.** 0.9481

**Q.** And the “metabolic activity: OD 492 nm divided” value (S sanguinis; 24 hrs)?
**A.** 1.0364

**Q.** And the “metabolic activity: OD 492 nm divided” value (S sanguinis; 48 hrs)?
**A.** 1.0188

**Q.** And the “metabolic activity: OD 492 nm divided” value (Streptococcus gordonii; 24 hrs)?
**A.** 1.5368

**Q.** What about the “metabolic activity: OD 492 nm divided” value (Streptococcus gordonii; 48 hrs) of the same compound?
**A.** 1.7842

**Q.** What about the “metabolic activity: OD 492 nm divided” value (Streptococcus mitis; 24 hrs) of the same compound?
**A.** 1.0047

**Q.** And the “metabolic activity: OD 492 nm divided” value (Streptococcus mitis; 48 hrs)?
**A.** 0.9006

**Q.** And the “increase in metabolic activity of S. mutans, in words” value (Streptococcus mutans; 24 hrs)?
**A.** borderline increase

**Q.** And the “metabolic activity: OD 492 nm divided” value (Streptococcus mutans; 24 hrs)?
**A.** 2.0160

**Q.** What about the “metabolic activity: OD 492 nm divided” value (Streptococcus mutans; 48 hrs) of the same compound?
**A.** 2.7520

**Q.** What about the “increase in metabolic activity of S. salivarius, in words” value (Streptococcus salivarius; 24 hrs) of the same compound?
**A.** marked increase

**Q.** What about the “metabolic activity: OD 492 nm divided” value (Streptococcus salivarius; 24 hrs) of the same compound?
**A.** 4.7396

**Q.** And the “metabolic activity: OD 492 nm divided” value (Streptococcus salivarius; 48 hrs)?
**A.** 5.1101

**Q.** What about the “metabolic activity: OD 492 nm divided” value (Streptococcus sobrinus; 24 hrs) of the same compound?
**A.** 1.4178

**Q.** And the “metabolic activity: OD 492 nm divided” value (Streptococcus sobrinus; 48 hrs)?
**A.** 1.3908

**Q.** And the “metabolic activity: OD 492 nm divided” value (Tannerella forsythia; 24 hrs)?
**A.** 1.0703

**Q.** And the “metabolic activity: OD 492 nm divided” value (Tannerella forsythia; 48 hrs)?
**A.** 1.1172

**Q.** And the “metabolic activity: OD 492 nm divided” value (Veillonella parvula; 24 hrs)?
**A.** 0.8079

**Q.** What about the “metabolic activity: OD 492 nm divided” value (Veillonella parvula; 48 hrs) of the same compound?
**A.** 0.6786
